The text below walks through data of patent EP0306300B1, “Pyrrolo(1,2-a)imidazole and imidazo(1,2-a)pyridine derivatives and their use as 5-lipoxygenase pathway inhibitors” (SMITHKLINE BEECHAM CORPORATION, priority 1987, dated 1989).

By IC50 is commonly meant the concentration needed to halve the response being measured. By inhibition is commonly meant the change of the read-out against control, counted positive when it falls. Read a low inhibition as little suppression.

The target of data set [1] is T1, 5-Lipoxygenase (Rattus norvegicus, UniProt P12527).
T1 construct: the supernatant was centrifuged at 100,000 x g for 60 min; host or cells: RBL-1 cells (soluble cell extract, high-speed supernatant)
T1 sequence (P12527 1-673): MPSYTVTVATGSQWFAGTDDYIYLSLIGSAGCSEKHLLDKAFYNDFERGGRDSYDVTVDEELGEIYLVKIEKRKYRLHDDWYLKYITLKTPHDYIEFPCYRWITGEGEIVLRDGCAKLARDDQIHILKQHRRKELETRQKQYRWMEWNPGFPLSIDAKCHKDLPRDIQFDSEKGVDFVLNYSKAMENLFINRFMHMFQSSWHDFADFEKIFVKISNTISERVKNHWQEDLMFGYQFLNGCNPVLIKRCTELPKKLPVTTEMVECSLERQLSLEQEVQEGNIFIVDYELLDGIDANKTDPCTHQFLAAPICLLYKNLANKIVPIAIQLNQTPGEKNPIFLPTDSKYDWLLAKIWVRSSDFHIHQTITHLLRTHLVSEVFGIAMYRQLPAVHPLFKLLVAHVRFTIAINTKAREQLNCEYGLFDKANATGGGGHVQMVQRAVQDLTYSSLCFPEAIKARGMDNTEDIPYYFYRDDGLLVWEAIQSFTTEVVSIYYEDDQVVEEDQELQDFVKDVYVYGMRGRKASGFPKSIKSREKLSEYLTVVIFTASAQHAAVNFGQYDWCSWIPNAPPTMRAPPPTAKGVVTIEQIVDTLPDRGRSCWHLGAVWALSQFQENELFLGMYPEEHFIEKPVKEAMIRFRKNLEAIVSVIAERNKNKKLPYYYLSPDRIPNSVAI
Briefly: Assay of 5-lipoxygenase activity in RBL-1 high speed supernatant. The note with it: read-out: 5-LO IC50. The data set is classed as biochemical. How it is done: For in vitro experiments, compounds were dissolved at appropriate concentrations in ethanol (final concentration 1.0%) and then diluted to final concentrations using the buffers indicated in the text.
The activities of these enzymes in extracts of RBL-1 cells were assayed using the method of Jakschik and Lee, Nature, 287, 51-52 (1980). RBL-1 cells were obtained from the American Type Culture Collection (#CRL 1378) and were grown at 37°C (5% CO₂ in air) in spinner culture in MEM supplemented with 10% heat inactivated fetal calf serum. Harvested cells were washed with 50 mM sodium phosphate buffer, pH 7.0, containing 1 mM EDTA and 0.1% gelatin, resuspended in fresh buffer (5 x 10⁷ cells/ml) and disrupted by nitrogen cavitation using the Parr bomb at 750 psi for 10 min. The broken cell extract was then centrifuged at 10,000 x g for 20 minutes (min) and the supernatant was centrifuged at 100,000 x g for 60 min. Aliquots (0.25 mls) of the supernatant were preincubated with or without drugs for 10 min, after which 10 ul CaCl₂ (2 mM) was added and the reaction was initiated with 2.5 »l of 2.5 mM arachidonic acid-1-¹⁴C (final concentration was 25 »M; specific activity 20,000 dpm/nmole). After incubation for 5 minutes at 37°C, the reaction was terminated by addition of 2 volumes (0.5 ml) ice cold acetone and the sample was allowed to deproteinize on ice for 10 minutes prior to centrifugation at 1,000 x g for 10 minutes. The deproteinized supernatant was adjusted to pH 3.5 with 2N formic acid and extracted with 2 volumes of ice cold ethyl acetate. The extracted samples were dried under argon, redissolved in ethyl acetate and applied to Whatman LK5D thin layer chromatography (TLC) plates which were developed using the A-9 solvent system [organic phase of ethyl acetate: […]:acetic acid: water (110:50:20:10)] described by Hamberg and Samuelsson, J. Biol. Chem., 241, 257-263 (1966). Arachidonic acid, 5-HETE, LTB₄ and PGD₂ were quantified with a Berthold LB 2832 autoscanner.
Under these conditions, only the 5-lipoxygenase pathway metabolites were detectable. The 5-HETE and di-HETEs were formed at a linear rate, and […] amounts of the arachidonic acid-1-¹⁴C substrate were utilized.

Data set [2] has as its system arachidonic acid-induced edema in mice. The experiment in a line: Arachidonic acid-induced mouse ear inflammation (ear swelling). The data set is classed as in vivo, male Balb/c mice. The note with it: 1 h, 50 mg/kg s.c. or i.p., ear thickness one hour after 2 mg arachidonic acid.
A short description of data set [3]: Cytochrome P-450 inhibition (ethoxycoumarin-O-deethylase activity, phenobarbital-induced microsomes). The note with it: rat.
Data set [4] has as its system arachidonic acid-induced edema in mice. Briefly: Arachidonic acid-induced mouse ear inflammation (ear swelling). The data set is classed as in vivo, male Balb/c mice. The note with it: for inhibition at 50 mg/kg: Mus musculus, po, 1 h, 50 mg/kg p.o., ear thickness one hour after 2 mg arachidonic acid; for antiinflammatory activity: p.o. How it is done: In the tests used to determine activity as 5-lipoxygenase pathway inhibitors, male Balb/c mice (20-28 g), were used. All mice were obtained from Charles River Breeding Laboratories, Kingston, N.Y. Within a single experiment, mice were age matched.
Reagents were employed as follows: Compounds of Formula (I) were each used as the free base. The compounds were homogenized in 0.5% tragacanth. Compounds were administered by […] at the indicated dose in a final volume of 10 ml/kg.
Arachidonic acid in acetone (2 mg/20 »l) was applied to the inner surface of the left ear. The thickness of both ears was then measured with a dial micrometer one hour after treatment, and the data were expressed as the change in thickness (10⁻³ cm) between treated and untreated ears.
Test compounds were given orally in acid/saline at the times indicated in the text prior to the topical application of arachidonic acid.
Dermatol., 82, 367-371 (1984)].

The mark [5] stands for this setting: LTB4 production by RBL-1 high speed supernatant.
Setting [6] is: total HETE and Di-HETE production by RBL-1 high speed supernatant.

“Also recorded” adds a separate entry of the source. Like-named read-outs stand apart in the source and are kept apart here. Bounds are passed on as bounds.

Take `CS(=O)(=O)c1ccc(-c2nc3n(c2-c2ccncc2)CCC3)cc1` [Compound 3, 2-(4-Methylsulfonylphenyl)-3-(4-pyridyl)-6.7-dihydro-[5H]-pyrrolo[1,2-a]imidazole]: the IC50 in data set [1] (setting [5]) and in data set [3] (microsomes) was above 100 µM each time. This molecule also gave an inhibition at 50 mg/kg in data set [2] of 3%.
`COc1ccc(-c2nc3n(c2-c2ccccn2)CCC3)cc1` [Compound 4]: the half-inhibitory concentration (IC50) in data set [1] (setting [5]) was above 100 µM. The molecule also yielded an inhibition at 50 mg/kg in data set [2] of 29%.
The molecule `COc1ccc(-c2nc3n(c2-c2cccnc2)CCC3)cc1` [Compound 5] gave an inhibition at 50 mg/kg in data set [2] of 34%. In data set [3] (microsomes), the IC50 was above 100 µM.
In the case of `Oc1ccc(-c2nc3n(c2-c2ccncc2)CCC3)cc1` [Compound 7], the inhibition at 50 mg/kg in data set [4] was found to be 27%. For the same molecule, the IC50 in data set [1] (setting [5]) was found to be 17 µM.
For the molecule `CCOc1ccc(-c2nc3n(c2-c2ccncc2)CCC3)cc1` [Compound 8], in data set [4], 50 mg/kg produced 62% inhibition. Besides, the IC50 in data set [1] (setting [5]) amounted to 6 µM.
Molecule `CCCOc1ccc(-c2nc3n(c2-c2ccncc2)CCC3)cc1` [Compound 9] registered an inhibition at 50 mg/kg in data set [4] of 42%. Besides, the IC50 in data set [1] (setting [5]) came out at 3.5 µM; in data set [1] (setting [6]) it was 8 µM.
In data set [4], `CC(C)Oc1ccc(-c2nc3n(c2-c2ccncc2)CCC3)cc1` [Compound 10] showed an inhibition at 50 mg/kg of 43%. The molecule further displayed an IC50 in data set [3] (microsomes) of 2.5 µM.
In data set [4], `CC(=O)Sc1ccc(-c2nc3n(c2-c2ccncc2)CCC3)cc1` [Compound 11, 2-(4-Acetylthiophenyl)-3-(4-pyridyl)-6,7-dihydro-[5H]-pyrrolo[1,2-a]imidazole] yielded an inhibition at 50 mg/kg of 46%. Moreover, in data set [1] (setting [6]), the IC50 is 25 µM.
For `CC(C)(C)C(=O)Sc1ccc(-c2nc3n(c2-c2ccncc2)CCC3)cc1` [Compound 12, 2-(4-Trimethylacetylthiophenyl)-3-(4-pyridyl)-6,7-dihydro-[5H]-pyrrolo[1,2-a]imidazole], in that order: 45% and 6 µM.
For `CC(=O)OCSc1ccc(-c2nc3n(c2-c2ccncc2)CCC3)cc1` [Compound 13, 2-(4-Acetoxymethylthiophenyl)-3-(4-pyridyl)-6,7-dihydro-[5H]-pyrrolo[1,2-a]imidazole], in that order: 51% and 47 µM.
Molecule `CCSc1ccc(-c2nc3n(c2-c2ccncc2)CCC3)cc1` [Compound 14, 2-(4-Ethylthiophenyl)-3-(4-pyridyl)-6,7-dihydro-[5H]-pyrrolo[1,2-a]imidazole] yielded an inhibition at 50 mg/kg in data set [4] of 56%. Further, the IC50 is 30 µM in data set [1] (setting [6]) and 28.1 µM in data set [3] (liver microsomes).
In turn, `CC[S+]([O-])c1ccc(-c2nc3n(c2-c2ccncc2)CCC3)cc1` (stereo not shown) [Compound 15, 2-(4-Ethylsulfinylphenyl)-3-(4-pyridyl)-6,7-dihydro-[5H]-pyrrolo[1,2-a]imidazole] showed an inhibition at 50 mg/kg in data set [4] of 41%. For the same molecule, the IC50 in data set [1] (setting [6]) and in data set [3] (liver microsomes) was above 100 µM throughout.
For the molecule `CCOC(=O)CSc1ccc(-c2nc3n(c2-c2ccncc2)CCC3)cc1` [Compound 16, 2-(4-Carbethoxymethylthiophenyl)-3-(4-pyridyl)-6,7-dihydro-[5H]-pyrrolo[1,2-a]imidazole], the IC50 in data set [1] (setting [6]) was 50 µM. In data set [2], this molecule gave an inhibition at 50 mg/kg of 15%.
On to `c1cc(-c2cn3c(n2)CCC3)ccn1` [Compound 17], for which the results for the inhibition at 50 mg/kg in data set [4] and in data set [2] were 20% and 41%, respectively.
As to `CSc1ccc(-c2c(-c3ccncc3)nc3n2CCC3)cc1` [Compound 18], the values for the inhibition at 50 mg/kg in data set [4] and in data set [2] were 28% and 32%, respectively.
For `C[S+]([O-])c1ccc(-c2c(-c3ccncc3)nc3n2CCC3)cc1` (stereo not shown) [Compound 19], in that order: 52% and 56%.
For `CSc1ccc(-c2nc3n(c2-c2ccnc(C)c2)CCC3)cc1` [Compound 20, 2-(4-Methylthiophenyl)-3-[4-(2-methyl)pyridyl]-6,7-dihydro-[5H]-pyrrolo[1,2,a]imidazole] the same measures were 59% and 59%.
`Cc1cc(-c2c(-c3ccc([S+](C)[O-])cc3)nc3n2CCC3)ccn1` (stereo not shown) [Compound 21, 2-(4-Methylsulfinylphenyl)-3-[4-(2-methyl)pyridyl]-6,7-dihydro-[5H]-pyrrolo[1,2-]imidazole]: the values for the inhibition at 50 mg/kg in data set [4] and in data set [2] were 59% and 14%, respectively.
In the case of `COc1ccc(-c2nc3n(c2-c2ccnc(C)c2)CCC3)cc1` [Compound 22, 2-(4-methoxyphenyl)-3-[4-(2-methyl)pyridyl]-6,7-dihydro-[5H]-pyrrolo[1,2-a]imidazole], the inhibition at 50 mg/kg in data set [4] amounted to 56%; in data set [2], 57%.
`COc1ccc(-c2nc3n(c2-c2ccnc(C)c2)CCC3)cc1` [Compound 23] gave an IC50 in data set [3] (liver microsomes) of 56.6 µM.
With `CC(C)Cc1ccc(C(C)C(=O)O)cc1` (stereo not shown) [ibuprofen, reference compound], in data set [4] (250 mg/kg), the antiinflammatory activity entry is “do not exhibit detectable antiinflammatory activity”.
Turning to `COc1ccc2c(c1)c(CC(=O)O)c(C)n2C(=O)c1ccc(Cl)cc1` [indomethacin, reference compound], the antiinflammatory activity entry in data set [4] (10 mg/kg) is listed as “did not reduce inflammation; also recorded: do not exhibit detectable antiinflammatory activity”.
On to `COc1ccc2cc([C@H](C)C(=O)O)ccc2c1` [naproxen, reference compound], for which the antiinflammatory activity result in data set [4] (100 mg/kg) is given as “do not exhibit detectable antiinflammatory activity”.
